According to article PMC10792358 (Clinical Cancer Research, 2023):

Assays:
[1] = system: HR+/HER2− breast cancer with PIK3CA mutations; conditions: patients with PIK3CA mutations, few treated with CDK4/6i; cited from earlier work
Plasma pharmacokinetics = conditions: data not shown

effect of molibresib on fulvestrant pharmacokinetics (Plasma pharmacokinetics; fulvestrant predose concentrations): lack of effect
predose concentrations (Plasma pharmacokinetics; fulvestrant with molibresib, compared with ref 18): within the range anticipated
Structure (SMILES): C[C@]12CC[C@@H]3c4ccc(O)cc4C[C@@H](CCCCCCCCC[S+]([O-])CCCC(F)(F)C(F)(F)F)[C@H]3[C@@H]1CC[C@@H]2O (stereo partly drawn) [fulvestrant]
ORR [1]: 12.8%
